Key:
Test in all cases: relative viability (nuclei count vs DMSO), 5 days (fraction); higher = more cells survive
BI-2536 + Dasatinib = compound: CC[C@@H]1C(=O)N(C)c2cnc(Nc3ccc(C(=O)NC4CCN(C)CC4)cc3OC)nc2N1C1CCCC1 [BI-2536] + Cc1nc(Nc2ncc(C(=O)Nc3c(C)cccc3Cl)s2)cc(N2CCN(CCO)CC2)n1 [Dasatinib] (partner 0.075 µM)
Procedure, shortened: (§1)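 Medians of duplicate plates are given as relative viability. That measure is the nuclei count in treated wells divided by the count in vehicle wells. Counts were taken on 4× images of lung cancer cell lines in 1536-well plates, 5 days after pin-tool dosing the day after seeding with one drug alone or a fixed anchor-drug dose plus five library-drug doses (not always all listed) in √10 steps.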

BI-2536 + Vorinostat = compound: CC[C@@H]1C(=O)N(C)c2cnc(Nc3ccc(C(=O)NC4CCN(C)CC4)cc3OC)nc2N1C1CCCC1 [BI-2536] + O=C(CCCCCCC(=O)Nc1ccccc1)NO [Vorinostat] (partner 1 µM)
Procedure, shortened: as §1

[1] = compound: CC1CC(=O)N(C2=CN=C(N=C2N1C3CCCC3)NC4=C(C=C(C=C4)C(=O)NC5CCN(CC5)C)OC)C [NPK76-II-72-1] + O=C(CCCCCCC(=O)Nc1ccccc1)NO [Vorinostat] (partner 1 µM)
Procedure, shortened: as §1

BI-2536 + Decitabine = compound: CC[C@@H]1C(=O)N(C)c2cnc(Nc3ccc(C(=O)NC4CCN(C)CC4)cc3OC)nc2N1C1CCCC1 [BI-2536] + Nc1ncn([C@H]2C[C@H](O)[C@@H](CO)O2)c(=O)n1 [Decitabine] (partner 2 µM)
Procedure, shortened: as §1

Cell Line | relative viability (BI-2536 + Dasatinib; first compound 0.01 µM) | relative viability (BI-2536 + Dasatinib; first compound 0.03162 µM) | relative viability (BI-2536 + Dasatinib; first compound 0.1 µM) | relative viability (BI-2536 + Dasatinib; first compound 0.3162 µM) | relative viability (BI-2536 + Dasatinib; first compound 1 µM) | relative viability (BI-2536 + Vorinostat; first compound 0.01 µM) | relative viability (BI-2536 + Vorinostat; first compound 0.03162 µM) | relative viability (BI-2536 + Vorinostat; first compound 0.1 µM) | relative viability (BI-2536 + Vorinostat; first compound 0.3162 µM) | relative viability (BI-2536 + Vorinostat; first compound 1 µM) | relative viability ([1]; first compound 0.01 µM) | relative viability ([1]; first compound 0.03162 µM) | relative viability ([1]; first compound 0.1 µM) | relative viability ([1]; first compound 0.3162 µM) | relative viability ([1]; first compound 1 µM) | relative viability (BI-2536 + Decitabine; first compound 0.01 µM) | relative viability (BI-2536 + Decitabine; first compound 0.03162 µM) | relative viability (BI-2536 + Decitabine; first compound 0.1 µM) | relative viability (BI-2536 + Decitabine; first compound 0.3162 µM) | relative viability (BI-2536 + Decitabine; first compound 1 µM)
NCI-H2087 | 0.913 | 0.926 | 0.509 | 0.105 | 0.0876 | 0.731 | 0.773 | 0.229 | 0.0706 | 0.124 | 0.569 | 0.854 | 0.572 | 0.485 | 0.814 | 0.273 | 0.247 | 0.149 | 0.0727 | 0.0981
BEN | 0.34 | 0.367 | 0.248 | 0.184 | 0.199 | 0.574 | 0.452 | 0.412 | 0.386 | 0.38 | 0.61 | 0.711 | 0.598 | 0.591 | 0.636 | 0.699 | 0.72 | 0.429 | 0.366 | 0.421
LCLC-103H | 0.405 | 0.467 | 0.413 | 0.147 | 0.089 | 0.767 | 0.776 | 0.265 | 0.168 | 0.239 |  | 0.83 | 0.769 | 0.745 | 0.838 | 0.792 | 0.749 | 0.652 | 0.322 | 0.333
EKVX | 0.742 | 0.653 | 0.586 | 0.399 | 0.174 | 0.875 | 0.729 | 0.676 | 0.407 | 0.208 | 0.634 | 0.736 | 0.684 |  | 0.921 | 0.303 | 0.333 | 0.288 | 0.164 | 0.169
LXF-289 | 0.274 | 0.235 | 0.0786 | 0.047 | 0.0368 | 0.855 | 0.684 | 0.372 | 0.0658 | 0.0936 | 0.772 | 0.714 | 0.703 | 0.655 | 0.756 | 0.382 | 0.376 | 0.363 | 0.0762 | 0.1
ABC-1 | 0.519 | 0.634 | 0.211 | 0.31 | 0.231 | 1.22 | 1.06 | 0.613 | 0.418 | 0.51 | 1 | 1.13 | 0.356 | 1.36 | 1.07 | 1.04 | 0.989 | 0.385 | 0.397 | 0.467
NCI-H650 | 0.44 | 0.511 | 0.3 | 0.158 | 0.0998 | 0.418 | 0.479 | 0.145 | 0.154 | 0.128 | 0.445 | 0.441 | 0.453 | 0.307 | 0.521 | 0.303 | 0.328 | 0.246 | 0.146 | 0.126
NCI-H1650 | 0.341 | 0.321 | 0.18 | 0.159 | 0.12 | 0.624 | 0.555 | 0.276 | 0.169 | 0.142 | 0.571 | 0.508 | 0.658 | 0.57 | 0.555 | 0.388 | 0.327 | 0.278 | 0.11 | 0.148
NCI-H2085 | 0.26 | 0.232 | 0.232 | 0.157 | 0.19 | 0.855 | 0.77 | 0.469 | 0.231 | 0.304 | 0.731 | 0.808 | 0.794 | 0.821 | 0.842 | 0.629 | 0.484 | 0.484 | 0.301 | 0.303
NCI-H1793 | 0.401 | 0.356 | 0.129 | 0.113 | 0.163 | 0.695 | 0.352 | 0.17 | 0.117 | 0.18 |  | 0.693 | 0.809 | 0.61 | 0.825 | 0.419 | 0.509 | 0.236 | 0.198 | 0.145
LC-2-ad | 0.563 | 0.333 | 0.135 | 0.197 | 0.147 | 0.63 | 0.274 | 0.181 | 0.198 | 0.221 | 0.619 | 0.768 | 0.668 | 0.755 | 0.698 | 0.739 | 0.659 | 0.506 | 0.247 | 0.223
COR-L 105 | 0.359 | 0.312 | 0.212 | 0.197 | 0.148 | 0.959 | 0.79 | 0.52 | 0.349 | 0.334 | 0.747 | 0.807 | 0.832 | 0.82 | 0.989 | 0.688 | 0.686 | 0.542 | 0.352 | 0.322
NCI-H1355 | 0.694 | 0.78 | 0.359 | 0.23 | 0.199 | 0.584 | 0.66 | 0.37 | 0.171 | 0.152 | 0.597 | 0.613 | 0.606 | 0.56 | 0.715 | 0.357 | 0.369 | 0.342 | 0.148 | 0.154
